These results are taken from patent US6369246B2, “Synthesis and pharmaceuticals of novel 9-substituted-1, 5-dichloroanthracene analogs” (Dr. Keith Chan, GloboAsia, LLC, priority 1999, dated 2002).

Assay [1] concerns iron-induced lipid peroxidation in rat brain homogenates. The experiment in a line: Lipid peroxidation assay (TBA). To be noted: ferrous ion 200 μM, 37° C. 30 min. It counts as biochemical, Wistar rats. As to the method: Rat brain homogenate was prepared from the brains of freshly killed Wistar rats and its peroxidation. In the presence of iron ions was measured by the thiobarbituric acid (TBA). Teng, C. M. et al., Eur. J. Pharmacol., 303, 129-139 (1996). Tetramethoxypropane was used as a standard, and the results were expressed as nanomoles of malondialdehyde equivalents per milligram of protein of rat brain homogenates. In brief, whole brain tissue, excluding the cerebellum, was washed and homogenized in 10 volumes of ice-cold Krebs buffer (10 mM N-2 hydroxyethyl-piperazine-N′-2-ethanesulfonic acid (Hepes), 10 mM glucose, 140 mM NaCl, 3.6 mM KCl, 1.5 mM CaCl2, 1.4 mM KH2PO4, 0.7 mM MgSO4, pH 7.4) using a glass Dounce homogenizer. […] The reaction mixture with test compounds or vehicle was incubated for 10 min, then stimulated by addition of ferrous ion (200 μM freshly prepared), and maintained at 37° C. for 30 min. The reactions were terminated by adding […] of ice-cold trichloroacetic acid solution (4% (w/v) in 0.3 N HCl) and […], of thiobarbituric acid-reactive substance reagent (0.5% (w/v) thiobarbituric acid in 50% (v/v) acetic acid). After boiling for 15 min, the samples were cooled and extracted with n-butanol. The extent of lipid peroxidation was estimated as thiobarbituric acid-reactive substances and was read at 532 nm in a spectrophotometer (Shimadzu UV-160).

For assay [2], the system named is GBM cell line (human cervical carcinoma cells of ME 180 (GBM8401)). The experiment in a line: Growth inhibition assay, GBM cell line. It counts as cell-based. To be noted: 48 hours, cell counting, read-out: IC50 GBM (concentration required to inhibit cell growth by 50% relative to controls). The procedure:
(§1) Growth inhibition was measured in three human carcinoma cell lines (GBK KB and CHO) using a previously described […] assay. Hwang, J.-M. et al., Chin. Med. J (Taipei), 51, 166-175 (1993). Human oral epidermoid carcinoma cells (KB cell line), human cervical carcinoma cells of ME 180 (GBM8401) and Chinese hamster ovary (CHO) cells grown in plateau phase were used in all experiments. Each cell line was further divided into control and experimental groups, respectively.
(§2) Stock solutions of the test compounds were prepared in DMSO and diluted with DMEM to give a final concentration of DMSO of 0.2%. Controls were performed with DMSO or with medium alone. The medium was removed and each well was rinsed with 100 μL PBS 48 hours after addition of the test compound to the culture. The cells were then incubated with sterile 0.5% trypsin, 0.2% EDTA in PBS for 20 minutes at 37° C. The detached cells from each well were suspended in DMEM and dispersed into single cells by gentle pipeting through an Eppendorf pipette and cell growth was determined directly by counting the cells in a Neubauer counting chamber using phase contrast microscopy. Inhibition was calculated by comparison of the mean values of the test compound (N=3) with the control (N=6−8) activity: (1-test compound/control) ×100. Inhibition was statistically significant compared to that of control (Student's t Test; P=0.05). IC50 values (concentration required to inhibit cell growth by 50%) were determined for each agent which was derived by interpolation of a log inhibitor concentration versus response plot using four or more different concentrations of the compound spanning the 50% inhibition point.

Assay [3] relates to Human oral epidermoid carcinoma cells (KB cell line). Put plainly: Growth inhibition assay, KB cell line. It counts as cell-based. The note with it: 48 hours, cell counting, read-out: IC50 KB (concentration required to inhibit cell growth by 50% relative to controls). The procedure:
as §1, §2

The test system of assay [4] is Chinese hamster ovary (CHO) cells. Put plainly: Growth inhibition assay, CHO cells. It counts as cell-based. To be noted: 48 hours, cell counting, read-out: IC50 CHO (concentration required to inhibit cell growth by 50% relative to controls). As to the method:
as §1, §2

On to `O=C(CCc1ccccc1)Oc1c2cccc(Cl)c2cc2cccc(Cl)c12` [Compound 3w], for which the “% Inhibition (1 μM), relative percentage of inhibition” value in assay [1] (1 μM compound) is given as 29.3%. Further, the “% Inhibition (10 μM), relative percentage of inhibition” value in assay [1] (10 μM compound) turned out to be 36.6%. For the same compound, the IC50 in assay [2] was 1730 µM; in assay [3], 936 µM; in assay [4] it was 1160 µM.
